Values of other authors as cited in patent publication US20260284033A1, “COMBINATION THERAPY WITH LP-PLA2 INHIBITOR AND A SECOND AGENT” (SciNeuro Therapeutics Inc., priority 2023, published 2026).

Key:
AD patients = conditions: phase 2, AD patients
[1] = tested on: BBB leakage animal models

Row | Compound | cognitive decline (AD patients) | disease biomarkers (AD patients) | tolerability (AD patients) | BBB leakage [1] | vascular dementia pathology [1]
1 | COCCN1CCC(N(Cc2ccc(-c3ccc(C(F)(F)F)cc3)cc2)C(=O)Cn2c(SCc3cccc(F)c3F)cc(=O)c3ccccc32)CC1 [rilapladib] | slowed down cognitive decline | improved disease biomarkers | well tolerated | – | –
2 | CCN(CC)CCN(Cc1ccc(-c2ccc(C(F)(F)F)cc2)cc1)C(=O)Cn1c(SCc2ccc(F)cc2)nc(=O)c2c1CCC2 [darapladib] | – | – | – | reduced BBB leakage | improved vascular dementia pathology
